Literature values as cited in US20170128401A1, “DIETARY COMPOSITION FOR IMPROVED PERFORMANCE” (priority 2015, published 2017).

Legend:
[1] = system: healthy adults; conditions: in vivo
[2] = system: healthy adults; conditions: in vivo; remark: listed apart in the source
[3] = 750 mg dose; 85% VO2 max
[4] = system: subjects; conditions: 400 mg of phosphatidylserine

Compound	VO2max [1]	carbohydrate absorption [2]	increase time to exhaustion in anaerobic events [3] [%+/−8]	decrease in wrong answers (test accuracy) [4] [%]	increase in correct answers (test accuracy) [4] [%]	increase speed of calculations [4] [%]
O=C(O[C@@H]1Cc2c(O)cc(O)cc2O[C@@H]1c1cc(O)c(O)c(O)c1)c1cc(O)c(O)c(O)c1 [EGCG, epigallocatechin gallate]	increased	significantly decreased				
phosphatidylserine			29	39	13	20
